The text below walks through data of US11472771B2, “Process for making amino diaryl ethers and amino diaryl ethers hydrochloride salts” (CELLESTIA BIOTECH AG, priority 2018, dated 2022).

Each structure is given as a SMILES string. Converted amounts (≈) assume the structure as drawn.

Series [1] in a line: Solubility in water at various pH-values. Particulars: for pH solution / soluble / calculated concentration charged: 500 mg in 14 ml; for soluble: conc. 33.33 mg/mL; for calculated concentration charged: not soluble. It counts as physicochemical. The method, then:
The solubilities in water of 6-(4-(tert-butyl)phenoxy)pyridin-3-amine (formula (Ia)) and the monohydrochloride salt thereof, i.e. 6-(4-(tert-butyl)phenoxy)pyridin-3-amine monohydrochloride, were assessed at various pH-values according to Tables 3 and 4. The solubility in water of 6-(4-(tert-butyl)phenoxy)pyridin-3-amine (formula (Ia)) according to Table 3 was assayed as follows: Free base 500 mg were charged into 14 mL of acidic media at pH=2, 4, at neutral pH=7 and basic pH=10 to afford suspensions within calculated concentration of appr. 35 mg/mL. The solubility in water of 6-(4-(tert-butyl)phenoxy)pyridin-3-amine monohydrochloride according to Table 4 was assayed as follows: HCl salt 100 mg each were charged into acidic media at pH=2 and 4 and neutral media pH=7 to furnish solutions. Most important observation was to that at a neutral solution at pH=7 drops down to pH=1 by charging HCl salt 100 mg.

A short description of series [2]: Solubility in water at various pH-values. It counts as physicochemical. The settings on record: aqueous buffer, thermodynamic from solid; in 0.01% HCl; 100 mg in 190 mL; read-out: solubility limit.
Where [3] appears, read: 15% acetic acid soln., pH solvent 2.

Turning to `CC(C)(C)c1ccc(Oc2ccc(N)cn2)cc1` [6-(4-(tert-butyl)phenoxy)pyridin-3-amine], the pH solution in series [1] (setting [3]) stood at 2; in series [1] (Fluke 33643 (pH = 4)), 4; in series [1] (Fluke 33646 (pH = 7)) it was 7; in series [1] (Fluke 33649 (pH = 10)) it was 10. Besides, the soluble entry in series [1] (setting [3]), in series [1] (Fluke 33643 (pH = 4)), in series [1] (Fluke 33646 (pH = 7)) and in series [1] (Fluke 33649 (pH = 10)) was “no” each time. Also, the calculated concentration charged in series [1] (setting [3]), in series [1] (Fluke 33643 (pH = 4)), in series [1] (Fluke 33646 (pH = 7)) and in series [1] (Fluke 33649 (pH = 10)) was 33.33 mg/mL in each case. For the same compound, in series [1] (water, in words), the solubility in water result is given as “very poorly soluble”. Besides, the solubility – broadly, the dissolved amount per volume that the medium holds – in series [2] came to 0.53 mg/mL (≈ 2190 µM).
